From patent US9023844B2, “Heterocyclylpyri (mi) dinylpyrazole as fungicidals” (Bayer Intellectual Property GmbH, priority 2011, dated 2015)

Experiment: Determination of log P values by HPLC on a reverse phase column (C18), EEC-Directive 79/831 Annex V.A8 (Methods A, B, C)
Format: physicochemical
Conditions: Method B (HPLC, reverse phase C18)
Procedure: (§1) Note on the determination of the log P values and mass detection: The stated log P values were determined in accordance with EEC-Directive 79/831 Annex V.A8 by HPLC (High Performance Liquid Chromatography) on a reverse phase column (C18). Agilent 1100 LC system; 50*4.6 Zorbax Eclipse Plus C18 1.8 micron; eluent A: acetonitrile (0.1% formic acid); eluent B: water (0.09% formic acid); linear gradient from 10% acetonitrile to 95% acetonitrile in 4.25 mins, then 95% acetonitrile for a further 1.25 mins; oven temperature 55° C.; flow rate: 2.0 mL/min. The mass detection was effected with an Agilend MSD system.
as §1, with “HP1100;” for “Agilent 1100 LC system;”, “(0.08%” for “(0.09%”, “5%” for “10%”, “1.70 min,” for “4.25 mins,”, “1.00 min;” for “1.25 mins;”, “the Micronass ZQ2000 mass detector from Waters.” for “an Agilend MSD system.”
Note on the determination of the log P values and mass detection: The stated log P values were determined in accordance with EEC-Directive 79/831 Annex V.A8 by UPLC (Ultra Performance Liquid Chromatography) on a reverse phase column (C18). HP1100; 50*2.1 Zorbax Eclipse Plus C18 1.8 micron; eluent A: acetonitrile (0.09% formic acid); eluent B: water (0.1% formic acid); linear gradient from 10% A to 95% A in 3.25 min; oven temperature 40° C.; flow rate: 0.8 mL/min. The mass detection was effected with the LCT Premier or SQD mass detector from Waters.
Compound O=C(Nc1cc(-c2c(-c3ccc(F)cc3F)nn3c2OCCC3)ccn1)C1(Cl)CC1 [Example 50] has a LogP of 2.84. CCCC(CCC)C(=O)Nc1cc(-c2c(-c3ccc(F)cc3)nn3c2OCCC3)ccn1 [Example 67] showed a LogP of 2.64. For O=C(Nc1cc(-c2c(-c3ccc(F)cc3)nn3c2OCCC3)ccn1)c1c(F)cccc1F [Example 71], the LogP was 2.43. For CC1(C(=O)Nc2cc(-c3c(-c4ccc(F)cc4)nn4c3OCCC4)ccn2)CC1 [Example 98], the LogP was 1.79. With CC(=O)CCCC(=O)Nc1cc(-c2c(-c3ccc(F)cc3)nn3c2OCCC3)ccn1 [Example 99] the LogP was 1.35. Work on O=C1CCC(C(=O)Nc2cc(-c3c(-c4ccc(F)cc4)nn4c3OCCC4)ccn2)C1 (stereo not drawn) [Example 112] yielded a LogP of 1.38. O=C(Nc1cc(-c2c(-c3ccc(F)cc3)nn3c2OCCC3)ccn1)c1cncc(F)c1 [Example 114] showed a LogP of 1.96. Compound CC(C)(F)C(=O)Nc1cc(-c2c(-c3ccc(F)cc3)nn3c2OCCC3)ccn1 [Example 115] has a LogP of 2.38. For O=C(Nc1cc(-c2c(-c3ccc(F)cc3)nn3c2OCCC3)ccn1)C1CC1(F)Cl (stereo not drawn) [Example 116], the LogP was 2.13. Compound CC1(C(=O)Nc2cc(-c3c(-c4ccc(F)cc4)nn4c3OCCC4)ccn2)CCCC1 [Example 117] has a LogP of 2.23. CC1(C(=O)Nc2cc(-c3c(-c4ccc(F)cc4)nn4c3OCCC4)ccn2)COCOC1 [Example 118] gave a LogP of 1.86. With CCC1(C(=O)Nc2cc(-c3c(-c4ccc(F)cc4)nn4c3OCCC4)ccn2)COC1 [Example 119] the LogP was 1.56. N#CC1(C(=O)Nc2cc(-c3c(-c4ccc(F)cc4)nn4c3OCCC4)ccn2)CC1 [Example 120] showed a LogP of 2.13. With CC1(C(=O)Nc2cc(-c3c(-c4ccc(F)cc4)nn4c3OCCC4)ccn2)CC=CCC1 (stereo not drawn) [Example 121] the LogP was 2.38. In the case of CC(C)=NOCC(=O)Nc1cc(-c2c(-c3ccc(F)cc3)nn3c2OCCC3)ccn1 [Example 122], the LogP is reported as 2.13. O=C(Cn1cccn1)Nc1cc(-c2c(-c3ccc(F)cc3)nn3c2OCCC3)ccn1 [Example 123] gave a LogP of 1.63. In the case of O=C(CC1CCCOC1)Nc1cc(-c2c(-c3ccc(F)cc3)nn3c2OCCC3)ccn1 (stereo not drawn) [Example 124], the LogP is reported as 1.57. O=C(Nc1cc(-c2c(-c3ccc(F)cc3)nn3c2OCCC3)ccn1)C1CC=CC1 [Example 125] showed a LogP of 1.76. With Cc1occc1C(=O)Nc1cc(-c2c(-c3ccc(F)cc3)nn3c2OCCC3)ccn1 [Example 126] the LogP was 1.96. CCC(C)CC(C)C(=O)Nc1cc(-c2c(-c3ccc(F)cc3)nn3c2OCCC3)ccn1 (stereo not drawn) [Example 127] gave a LogP of 2.65. Compound O=C(Nc1cc(-c2c(-c3ccc(F)cc3)nn3c2OCCC3)ccn1)C1CCSCC1 [Example 128] has a LogP of 1.83. Work on O=C(Nc1cc(-c2c(-c3ccc(F)cc3)nn3c2OCCC3)ccn1)C1(C2CC2)CC1 [Example 129] yielded a LogP of 2.46. O=C(Nc1cc(-c2c(-c3ccc(F)cc3)nn3c2OCCC3)ccn1)c1ccc(F)s1 [Example 130] showed a LogP of 2.42. In the case of CC[C@H](C)CC(=O)Nc1cc(-c2c(-c3ccc(F)cc3)nn3c2OCCC3)ccn1 [Example 131], the LogP is reported as 2.1. O=C(CCn1ccnn1)Nc1cc(-c2c(-c3ccc(F)cc3)nn3c2OCCC3)ccn1 [Example 133] gave a LogP of 1.23. For Cc1cc(C(=O)Nc2cc(-c3c(-c4ccc(F)cc4)nn4c3OCCC4)ccn2)no1 [Example 134], the LogP was 2.53. Cc1noc(C)c1C(=O)Nc1cc(-c2c(-c3ccc(F)cc3)nn3c2OCCC3)ccn1 [Example 135] gave a LogP of 2.06. In the case of CC(C)=NOC(C)C(=O)Nc1cc(-c2c(-c3ccc(F)cc3)nn3c2OCCC3)ccn1 (stereo not drawn) [Example 136], the LogP is reported as 2.34. O=C(Cn1cncn1)Nc1cc(-c2c(-c3ccc(F)cc3)nn3c2OCCC3)ccn1 [Example 137] showed a LogP of 1.32. For CC(C)[C@H](NC=O)C(=O)Nc1cc(-c2c(-c3ccc(F)cc3)nn3c2OCCC3)ccn1 [Example 138], the LogP was 1.6. Compound O=C(CC1=CCCCC1)Nc1cc(-c2c(-c3ccc(F)cc3)nn3c2OCCC3)ccn1 [Example 139] has a LogP of 2.46.

Same assay, conditions: Method C (HPLC, reverse phase C18)
In the case of CCC(=O)Nc1cc(-c2c(-c3ccccc3)nn3c2N(C(=O)CC)CCC3)ccn1 [Example 78], the LogP is reported as 1.45. C[Si]1(C)COc2c(-c3ccnc(NC(=O)C4CC4)c3)c(-c3cccs3)nn2C1 [Example 87] gave a LogP of 2.08. With CCC(=O)N1CCCn2nc(-c3ccc(F)cc3)c(-c3ccnc(N(C(C)=O)C(=O)CC)c3)c21 [Example 90] the LogP was 2.39. In the case of CCC(=O)Nc1cc(-c2c(-c3ccc(F)cc3)nn3c2N(C(=O)CC)CCC3)ccn1 [Example 91], the LogP is reported as 1.62. For CCC(=O)N(C)c1cc(-c2c(-c3ccc(F)cc3)nn3c2N(C(=O)CC)CCC3)ccn1 [Example 93], the LogP was 2.05. Compound CC(=O)Nc1cc(-c2c(-c3ccc(F)cc3)nn3c2N(C(C)=O)CCC3)ccn1 [Example 94] has a LogP of 1.26. CCN1CCCn2nc(-c3ccc(F)cc3)c(-c3ccnc(NCc4ccccc4)c3)c21 [Example 97] gave a LogP of 1.86. CC(C)C(=O)Nc1cc(-c2c(-c3ccc(F)cc3)nn3c2OCC(C)(C#N)C3)ccn1 (stereo not drawn) [Example 107] gave a LogP of 1.94. For CC1(C)COc2c(-c3ccnc(NC(=O)C4CC4)c3)c(-c3ccc(F)cc3)nn2C1 [Example 108], the LogP was 2.08. Compound CC(=O)Nc1cc(-c2c(-c3ccc(F)cc3)nn3c2OCC(C)(C)C3)ccn1 [Example 109] has a LogP of 1.75. CCC(=O)Nc1cc(-c2c(-c3ccc(F)cc3)nn3c2OCC(C)(C)C3)ccn1 [Example 110] showed a LogP of 2.00. CC(C)C(=O)Nc1cc(-c2c(-c3ccc(F)cc3)nn3c2OCC(C)(C)C3)ccn1 [Example 111] gave a LogP of 2.23.

Same assay, conditions: reverse phase C18 HPLC column, Method B (HPLC, reverse phase C18); read-out: LogP
In the case of CC(F)C(=O)Nc1cc(-c2c(-c3ccc(F)cc3)nn3c2OCCC3)ccn1 (stereo not drawn) [Example 113, 2-fluoro-N-{4-[2-(4-fluorophenyl)-6,7-dihydro-5H-pyrazolo[5,1-b][1,3]oxazin-3-yl]pyridin-2-yl}propanamide], the chromatographic logP is reported as 2.

Same assay, conditions: reverse phase C18 HPLC column, Method C (HPLC, reverse phase C18); read-out: LogP
With CC(=O)N1CCCn2nc(-c3ccccc3)c(-c3ccnc(N(C(C)=O)C(C)=O)c3)c21 [Example 58, N-acetyl-N-[4-(4-acetyl-2-phenyl-4,5,6,7-tetrahydropyrazolo[1,5-a]pyrimidin-3-yl)pyridin-2-yl]acetamide] the chromatographic logP was 1.72. In the case of CC(=O)Nc1cc(-c2c(-c3ccc(F)cc3)nn3cccnc23)ccn1 [Example 60, N-{4-[2-(4-Fluorophenyl)pyrazolo[1,5-a]pyrimidin-3-yl]pyridin-2-yl}acetamide], the chromatographic logP is reported as 1.47.

Same assay, conditions: reverse phase C18 HPLC column, pH 2.3, intermediates of formula [IV] and [XXXVII]; HPLC, reverse phase C18; read-out: LogP (pH 2.3)
Compound C[C@@H]1C[C@@H](C)n2nc(-c3ccc(F)cc3)c(Br)c2O1 (racemic) [[IV-9a], rac-trans-3-bromo-2-(4-fluorophenyl)-5,7-dimethyl-6,7-dihydro-5H-pyrazolo[5,1-b][1,3]oxazine] has a chromatographic logP of 3.91. With C[C@@H]1C[C@H](C)n2nc(-c3ccc(F)cc3)c(Br)c2O1 (racemic) [[IV-9b], rac-cis-3-bromo-2-(4-fluorophenyl)-5,7-dimethyl-6,7-dihydro-5H-pyrazolo[5,1-b][1,3]oxazine] the chromatographic logP was 3.68.

Same assay, conditions: reverse phase C18 HPLC column, pH 2.7, values in the synthesis examples; HPLC, reverse phase C18; read-out: log P (pH 2.7)
C[C@@H]1C[C@@H](C)n2nc(-c3ccc(F)cc3)c(Br)c2O1 (racemic) [[IV-9a], rac-trans-3-bromo-2-(4-fluorophenyl)-5,7-dimethyl-6,7-dihydro-5H-pyrazolo[5,1-b][1,3]oxazine] gave a chromatographic logP of 3.91. With C[C@@H]1C[C@H](C)n2nc(-c3ccc(F)cc3)c(Br)c2O1 (racemic) [[IV-9b], rac-cis-3-bromo-2-(4-fluorophenyl)-5,7-dimethyl-6,7-dihydro-5H-pyrazolo[5,1-b][1,3]oxazine] the chromatographic logP was 3.68. Work on CC(=O)N1CCCn2nc(-c3ccccc3)c(-c3ccnc(N(C(C)=O)C(C)=O)c3)c21 [Example 58, N-acetyl-N-[4-(4-acetyl-2-phenyl-4,5,6,7-tetrahydropyrazolo[1,5-a]pyrimidin-3-yl)pyridin-2-yl]acetamide] yielded a chromatographic logP of 1.72. Work on CC(=O)Nc1cc(-c2c(-c3ccc(F)cc3)nn3cccnc23)ccn1 [Example 60, N-{4-[2-(4-Fluorophenyl)pyrazolo[1,5-a]pyrimidin-3-yl]pyridin-2-yl}acetamide] yielded a chromatographic logP of 1.47. Compound CC(F)C(=O)Nc1cc(-c2c(-c3ccc(F)cc3)nn3c2OCCC3)ccn1 (stereo not drawn) [Example 113, 2-fluoro-N-{4-[2-(4-fluorophenyl)-6,7-dihydro-5H-pyrazolo[5,1-b][1,3]oxazin-3-yl]pyridin-2-yl}propanamide] has a chromatographic logP of 2. CC(C)(C)OC(=O)Nc1cc(-c2c(-c3ccccc3)nn3cccnc23)ccn1 [[I-i-2], tert-butyl [4-(2-phenylpyrazolo[1,5-a]pyrimidin-3-yl)pyridin-2-yl]carbamate] showed a chromatographic logP of 2.32.
